Results published in patent US20220306640A1, “HYDANTOIN DERIVATIVE” (ONO PHARMACEUTICAL CO., LTD., priority 2019, published 2022).

Tests used:
[1] = target: T1, DDR1 phosphorylation in kidney (Mus musculus, UniProt Q03146); assay: Measurement of DDR1 phosphorylation suppression rate by using UUO (unilateral ureteral obstruction) model (in vivo test); design: species or system C57BL/6J mice; settings: UUO mice, dose of 10 mg/kg, oral single dose, kidney 8 h after dosing, relative to the difference between the untreated group and control group
T1 construct: from tissue; host or cells: kidney of C57BL/6J mice (UUO model)
T1 sequence (Q03146 20-911): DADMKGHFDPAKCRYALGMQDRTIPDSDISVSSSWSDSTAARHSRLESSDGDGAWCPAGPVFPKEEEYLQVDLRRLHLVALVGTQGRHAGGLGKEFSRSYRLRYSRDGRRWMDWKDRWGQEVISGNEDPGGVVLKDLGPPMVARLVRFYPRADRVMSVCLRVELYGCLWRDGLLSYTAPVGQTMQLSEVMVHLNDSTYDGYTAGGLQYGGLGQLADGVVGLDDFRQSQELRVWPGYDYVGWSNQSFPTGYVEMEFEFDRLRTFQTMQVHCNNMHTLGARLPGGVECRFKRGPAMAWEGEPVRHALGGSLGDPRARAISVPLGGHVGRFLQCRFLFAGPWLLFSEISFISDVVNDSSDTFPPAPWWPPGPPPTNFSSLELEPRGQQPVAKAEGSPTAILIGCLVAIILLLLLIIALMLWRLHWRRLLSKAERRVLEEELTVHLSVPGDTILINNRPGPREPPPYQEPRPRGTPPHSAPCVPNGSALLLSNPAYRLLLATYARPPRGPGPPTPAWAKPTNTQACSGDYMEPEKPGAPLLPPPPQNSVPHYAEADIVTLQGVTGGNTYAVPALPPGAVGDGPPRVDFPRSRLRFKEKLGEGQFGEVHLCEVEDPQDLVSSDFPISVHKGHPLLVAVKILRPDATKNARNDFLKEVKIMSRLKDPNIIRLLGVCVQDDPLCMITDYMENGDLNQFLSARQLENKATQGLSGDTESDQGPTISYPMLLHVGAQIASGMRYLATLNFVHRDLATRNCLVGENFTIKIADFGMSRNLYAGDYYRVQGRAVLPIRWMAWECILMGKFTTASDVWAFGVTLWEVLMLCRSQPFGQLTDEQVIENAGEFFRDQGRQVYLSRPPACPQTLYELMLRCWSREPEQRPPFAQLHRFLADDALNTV
Description: Biological Example 4: Measurement of DDR1 phosphorylation suppression rate by using UUO (unilateral ureteral obstruction) model (in vivo test).
Species & Strain: C57BL/6J mice
Mice were randomly assigned to respective groups based on the animal's body weight.
Surgery was performed in male C57BL/6J mice on Day 0. With the mice under anesthesia, operation area was disinfected with 75% alcohol after shaving. Mice in UUO group were exposed left ureter through a small incision on the left side of the abdomen and ligated with 3-0 silk at two locations about 0.5 cm below the renal hilum. Normal control mice were had their ureters manipulated but not ligated. Zoletil combined with Xylazine (20:1, v:v) were used in this study, the final dose of Zoletil was 25 mg/kg.
Route: oral administration
Dosage: 1, 3 and 10 mg/kg
Body weights of all animals were measured prior surgery and prior dosing. Clinical observations of all animals were monitored and recorded daily throughout the study. […]
On Day 3, all animals were euthanized with carbon dioxide. […] Then the samples were analyzed by Elisa.
DDR1 and p-DDR1 levels in ipsilateral kidney samples were analyzed by Elisa method. […]
All statistical tests were conducted, and the level of significance was set at 5% or P<0.05. The group means and standard deviation were calculated for all measurement parameters as study designed. […]

[2] = target: KDR (Homo sapiens, UniProt P35968); assay: Evaluation of kinase selectivity: % inhibition rate of KDR at 1 μmol/L; type: biochemical; settings: compound at 1 μmol/L
KDR, sequence (P35968 20-1356, species assumed): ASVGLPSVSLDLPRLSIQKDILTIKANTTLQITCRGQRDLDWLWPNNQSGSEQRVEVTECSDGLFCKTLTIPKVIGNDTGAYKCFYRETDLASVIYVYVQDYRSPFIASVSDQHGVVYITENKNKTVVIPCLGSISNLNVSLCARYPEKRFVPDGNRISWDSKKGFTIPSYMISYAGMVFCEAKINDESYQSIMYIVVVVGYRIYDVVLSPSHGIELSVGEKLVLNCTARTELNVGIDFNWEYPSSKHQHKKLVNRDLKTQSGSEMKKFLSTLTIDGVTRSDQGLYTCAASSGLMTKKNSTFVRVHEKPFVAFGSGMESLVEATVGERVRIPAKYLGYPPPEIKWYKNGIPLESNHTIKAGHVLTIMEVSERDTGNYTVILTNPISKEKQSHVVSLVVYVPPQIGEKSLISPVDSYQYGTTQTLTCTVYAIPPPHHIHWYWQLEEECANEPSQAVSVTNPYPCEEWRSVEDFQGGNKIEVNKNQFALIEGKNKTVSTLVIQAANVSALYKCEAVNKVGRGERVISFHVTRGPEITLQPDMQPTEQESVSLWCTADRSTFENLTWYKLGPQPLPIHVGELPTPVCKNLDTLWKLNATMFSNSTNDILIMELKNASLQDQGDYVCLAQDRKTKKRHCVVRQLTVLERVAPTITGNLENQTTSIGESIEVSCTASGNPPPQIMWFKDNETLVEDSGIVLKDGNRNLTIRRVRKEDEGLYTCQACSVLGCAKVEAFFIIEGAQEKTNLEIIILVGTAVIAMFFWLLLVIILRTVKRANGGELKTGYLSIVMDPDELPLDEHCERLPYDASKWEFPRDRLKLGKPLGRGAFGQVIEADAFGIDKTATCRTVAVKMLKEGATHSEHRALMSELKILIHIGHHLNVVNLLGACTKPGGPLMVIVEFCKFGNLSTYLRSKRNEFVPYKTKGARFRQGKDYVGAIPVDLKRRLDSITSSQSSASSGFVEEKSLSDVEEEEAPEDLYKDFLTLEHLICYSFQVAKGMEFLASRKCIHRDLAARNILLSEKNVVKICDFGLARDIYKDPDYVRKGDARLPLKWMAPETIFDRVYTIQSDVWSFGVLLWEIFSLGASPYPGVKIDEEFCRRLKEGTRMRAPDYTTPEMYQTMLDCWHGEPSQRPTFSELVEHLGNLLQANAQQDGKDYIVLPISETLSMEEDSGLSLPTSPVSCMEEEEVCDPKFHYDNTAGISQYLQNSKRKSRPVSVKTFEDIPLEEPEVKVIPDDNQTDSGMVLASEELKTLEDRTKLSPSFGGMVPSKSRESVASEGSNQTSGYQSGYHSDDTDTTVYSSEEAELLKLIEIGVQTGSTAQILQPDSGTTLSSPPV
Description: Biological Example 3: Evaluation of Kinase Selectivity
% inhibition rate with respect to various kinases (for example KDR etc.) of 1 μmol/L the test compound is measured.
A general assay condition (substrates, cofactor, ATP concentrations and reaction time etc.) suitable for respective kinase enzyme inhibition activity test is used.
1 Prepare the test compounds into 1 mmol/L DMSO solution. 2 Transfer 20 nL of stock to 384 assay plate. Use DMSO as High and Low controls.
1 Prepare the 1.3× Enzyme solution containing enzyme, substrate and cofactors. 2 Add 15 μL of 1.3× Enzyme solutions to each well and incubate the plate at room temperature for 30 min. 3 Initiate the reaction by adding 5 μL of 4×ATP solution. The final volume of each well should be 20 μL. 4 Incubate the plate at room temperature for reaction and add 75 μL of stopping buffer (containing 0.5 mol/L EDTA) to terminate the reaction.
Analyze the sample of each well using EZ reader (PerkinElmer).
Calculate the % Inhibition using read conversion ratio (CR) following the equation as below.
Use well treated with DMSO as High Control Use well without enzyme as Low Control

Cc1cc(Oc2ccnc(N)n2)ccc1N1C(=O)CN(c2ccc(F)c(OC(F)(F)F)c2)C1=O [Example 3(110), 3-{4-[(2-amino-4-pyrimidinyl)oxy]-2-methylphenyl}-1-[4-fluoro-3-(trifluoromethoxy)phenyl]-2,4-imidazolidinedione]
DDR1 phosphorylation suppression [1]: 50%
inhibition at 1 µM [2]: 4%
